According to patent US9120753B2, “Phenol derivatives and pharmaceutical or cosmetic use thereof” (GALDERMA RESEARCH & DEVELOPMENT, priority 2009, dated 2015):

Target: T1, AR receptor (Homo sapiens, UniProt P10275)
T1 construct: expressed in transfected cells; host or cells: PALM (PC3 stably transfected with PMMTV-neo-Luc and pSG5puro-AR)
T1 sequence (P10275 1-920): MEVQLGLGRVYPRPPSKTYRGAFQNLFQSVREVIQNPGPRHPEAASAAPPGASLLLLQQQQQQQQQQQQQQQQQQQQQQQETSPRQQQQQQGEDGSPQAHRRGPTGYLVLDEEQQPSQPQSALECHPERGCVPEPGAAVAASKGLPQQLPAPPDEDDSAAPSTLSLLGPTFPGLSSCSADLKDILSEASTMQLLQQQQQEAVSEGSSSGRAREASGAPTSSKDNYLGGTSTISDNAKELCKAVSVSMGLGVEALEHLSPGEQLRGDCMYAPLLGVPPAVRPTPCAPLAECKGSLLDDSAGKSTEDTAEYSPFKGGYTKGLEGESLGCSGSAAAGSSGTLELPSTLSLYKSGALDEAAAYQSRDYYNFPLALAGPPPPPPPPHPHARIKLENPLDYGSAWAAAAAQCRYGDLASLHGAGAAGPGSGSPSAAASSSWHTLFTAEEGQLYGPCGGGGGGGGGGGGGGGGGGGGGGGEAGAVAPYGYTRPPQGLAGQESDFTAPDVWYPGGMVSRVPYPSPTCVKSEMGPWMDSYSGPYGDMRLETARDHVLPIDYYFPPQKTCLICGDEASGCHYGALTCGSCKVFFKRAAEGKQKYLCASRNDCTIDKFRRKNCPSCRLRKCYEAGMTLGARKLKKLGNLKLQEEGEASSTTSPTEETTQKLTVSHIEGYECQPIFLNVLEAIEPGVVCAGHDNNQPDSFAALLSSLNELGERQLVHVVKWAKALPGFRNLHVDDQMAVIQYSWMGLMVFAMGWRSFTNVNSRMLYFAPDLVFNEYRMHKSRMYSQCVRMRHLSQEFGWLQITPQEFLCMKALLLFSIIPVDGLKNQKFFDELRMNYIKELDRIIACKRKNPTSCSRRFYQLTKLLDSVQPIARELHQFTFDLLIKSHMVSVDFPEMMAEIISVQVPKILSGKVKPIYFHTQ
Experiment: transactivation test in PALM (PC3 Androgen receptor Luciferase MMTV) cell line, cross curves against methyltrienolone
Assay type: cell-based
Conditions: cross curves vs reference agonist methyltrienolone, read-out: Kdapp (apparent dissociation constant)
Method: The compounds according to the invention show inhibitory properties on receptors of AR type. This AR receptor-inhibiting activity is measured in a transactivation test through the KdR (resting), KdA (active) and Kdapp (apparent) dissociation constants according to the method set out in J. Molecular Biology (1965), 12(1), 88-118, Monod J. et al.
The expression “AR-type receptor inhibitor” means, according to the invention, any compound which has a Kdapp dissociation constant of less than or equal to 1 μM, and a KdR/Kda ratio ≦10, in a transactivation test.
The transactivation test is carried out in the PALM (PC3 Androgen receptor Luciferase MMTV) cell line which is a stable transfectant containing the PMMTV-neo-Luc (reporter gene) and pSG5puro-AR plasmids.
In this study, the affinity of each product for the 2 receptor states (KdR and KdA) is determined, as is an apparent Kd (Kdpp). This constant is a result of the 2 Kd, but also depends on the initial equilibrium of the receptor between the active state and the resting state (L0) and on its expression level. It is determined by means of the following formula: 1/KdApp=(L0/(1+L0))x(1/KdR)+(1/(1+L0))x(1/KdA)
To determine these constants, “cross curves” of the test product against a reference agonist, methyltrienolone, are produced in 96-well plates. The test product is used at 10 concentrations and the reference agonist at 7 concentrations.

SMILES	Kd
N#Cc1cncc(NCc2ccccc2O)c1 [Compound 4, 5-(2-Hydroxybenzylamino)nicotinonitrile]	200 nM
CCC(Nc1cncc(Br)c1)c1ccccc1O (stereo not drawn) [Compound 9, 2-[1-(5-Bromopyridin-3-ylamino)propyl]phenol]	60 nM
Oc1cccc(F)c1CNc1cncc(Br)c1 [Compound 2, 2-[(5-Bromopyridin-3-ylamino)methyl]-3-fluorophenol]	5 nM

Results, then the molecule that gave them:

Kd	SMILES
6 nM	Oc1ccccc1CNc1cncc(Br)c1 [Compound 1, 2-[(5-Bromopyridin-3-ylamino)methyl]phenol]
15 nM	Cc1cncc(NCc2ccccc2O)c1 [Compound 14, 2-[(5-Methylpyridin-3-ylamino)methyl]phenol]

System: not given
Experiment: not given
Conditions: not given

melting point	SMILES
184 °C	Oc1ccccc1CNc1cncc(Br)c1 [Compound 1, 2-[(5-Bromopyridin-3-ylamino)methyl]phenol]
